In data set [1] the test system is IL-4 induced STAT-6 phosphorylation in Ramos B lymphocytes (type I IL-4 receptor). As to the kind of experiment: Ramos STAT-6 phosphorylation assay (western blot). Format: cell-based. Here is the method:
Ramos cells were purchased from ATCC and maintained in RMPI-1640 with 10% heat-inactivated Fetal Bovine Serum. Cells used for assays were between passages 4 and 8. […] Undiluted cell lysates were run SDS-PAGE and transferred to Immunoblot PVDF membrane using Biorad equipment. Membranes were incubated with 1:1000 primary antibody overnight at 4° C. Membranes were then incubated with 1:50,000 dilution secondary for 1 hour at room temperature. Membranes were then exposed to Femto ECL for 5 minutes and imaged using a Bio-Rad Gel Doc. The brightness/contrast was adjusted in FIJI and the area under the curve of each lane was quantified. The phosphorylated STAT-6 to STAT-6 ratio was calculated and normalized to the amount of total STAT-6. The data was plotted and analyzed using GraphPad Prism 9.2.0.
In general terms: Immunoblotting shows a protein as a band on a membrane.

Data set [2] in a line: Mouse hepatic microsome stability. The note with it: mouse hepatic microsomes. Format: in vitro ADME.
The target of data set [3] is T1, IL-4 (Homo sapiens, UniProt P05112).
T1 construct: purchased Acros Biosystems IL4-H4218; host or cells: HEK-293
T1 sequence (P05112 25-153): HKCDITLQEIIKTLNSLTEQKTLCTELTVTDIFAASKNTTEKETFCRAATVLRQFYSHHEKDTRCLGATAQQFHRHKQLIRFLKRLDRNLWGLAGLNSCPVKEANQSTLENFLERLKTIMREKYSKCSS
As to the kind of experiment: HEK-Blue IL-4/IL-13 reporter assay, IL-4 inhibition. Format: cell-based. The note with it: for pEC50: dose response, IL-4 inhibition. A general note: In a reporter assay the amount or activity of a reporter protein is the signal.

The nature of data set [4]: Mouse plasma stability. Format: in vitro ADME.
In data set [5] the target is T1, IL-4. As to the kind of experiment: HEK-Blue IL-4/IL-13 reporter assay, IL-4 inhibition. Format: cell-based. The note with it: control: cells with 10 μM compound only, no IL-4.
Data set [6] concerns IL-4 induced STAT-6 phosphorylation in THP-1 monocytes (type II IL-4 receptor). As to the kind of experiment: THP-1 STAT-6 phosphorylation assay (western blot). Format: cell-based. How it is done:
THP-1 cells were received as a gift from the laboratory of Dr. Mark Grinstaff and maintained in RMPI-1640 with […] heat-inactivated Fetal Bovine Serum and 50 μM beta-mercaptoethanol. Cells used for assays were between passages 6 and 10, 10 ng/mL IL-4 was preincubated with experimental sample (vehicle or analogs) for 30 minutes at 37° C. 1 mL of each solution was then added to a pellet of 2 E6 THP-1 cells and pipetted up and down. THP-1 cells were incubated for 30 minutes in the incubator at 37 C/5% CO2. Cells were then spun down and lysed with 200 μL ice-cold RIPA buffer complete with phosphatase and protease inhibitors. Cell lysates were incubated on ice for 30 minutes, spun down and the supernatants were stored at −20° C. until western blot analysis. Undiluted cell lysates were run on SDS-PAGE and transferred to Immunoblot PVDF membrane using Biorad equipment. Membranes were incubated with 1:1000 primary antibody overnight at 4° C. Membranes were then incubated with 1:50,000 dilution secondary for 1 hour at room temperature. Membranes were then exposed to Femto ECL for 5 minutes and imaged using a Bio-Rad Gel Doc. The brightness/contrast was adjusted in FIJI and the area under the curve of each lane was quantified. The phosphorylated STAT-6 to STAT-6 ratio was calculated and normalized to the amount of total STAT-6. The data was plotted and analyzed using GraphPad Prism 9.2.0′.

Data set [7] relates to B16-F10 cells. As to the kind of experiment: In vitro cytotoxicity (CellTiter-Glo). Format: cell-based. The settings on record: up to 25 μM. How it is done:
CellTiter-Glo 2.0 purchased from Promega G9242) was used to measure cell viability with the Victor-3 plate reader (PerkinElmer) after 24 hours in concentrations of compound up to 25 μM. Vehicle was used as a negative control for both cytotoxicity and growth inhibition, methanol was used as a positive control for cytotoxicity, and 1% FBS was used as a positive control for growth inhibition.
(In general: ATP-based viability assays read luminescence as a measure of living cells.)

Data set [8] has as its system IL-4 induced pSTAT-6 in THP-1 cells. As to the kind of experiment: THP-1 pSTAT-6 immunofluorescence.
Description: IL-4 and analogs or vehicle (DMEM with 2% DMSO) were preincubated for 2 hours at 37° C. After the incubation, IL-4 or IL-4/analogs were incubated with THP-1 cells for 30 min at 37° C./5% CO2. Incubated cells were centrifuged for 5 min at 250×g. After aspirating the supernatant, cells were resuspended in 1×PBS and plated into a MatTek dish coated with Cell Tak adhesive for 30 minutes at room temperature. Cells were fixed with 4% Paraformaldehyde for 1 hour at room temperature. Cells were rinsed twice with 1×PBS and then permeabilized with 0.5% Triton-X for 1 hour at room temperature. Cells were rinsed again with 1×PBS, and blocked for an hour in superblock with 0.05% Tween-20, rinsed twice, and then incubated with anti-pSTAT-6 1:100 diluted in superblock 0.05% Tween-20 overnight at 4° C. (parafilmed to avoid evaporation). Cells were rinsed thrice with 1×PBS and then incubated with Mouse anti-rabbit IgG(H+L) Secondary Antibody-Alexa Fluor 647 for 1 hour at room temperature in the dark. […] Cells were rinsed twice with 1×PBS and left in 1 ml of 1×PBS. Confocal Imaging was done using an Olympus FV10i and images were processed using FIJI.
Data set [9] can be described thus: Human plasma stability. Format: in vitro ADME.
Data set [10] deals with IL-13 (Homo sapiens, UniProt P35225). As to the kind of experiment: HEK-Blue IL-4/IL-13 reporter assay, IL-13 inhibition. Format: cell-based. The settings on record: soluble IL-13 mediated signaling, HEK Blue IL-4/IL-13 reporter assay. How it is done:
Prior to screening. […] The solution was added to preincubated cells in a 96-well culture plate. The supernatant was then incubated with Quanti-Blue dye for 3 hours and absorbance was measured at 650 nm. Data was analyzed and plotted using GraphPad Prism 9.2.0.

Data set [11] deals with T2, soluble IL-4 (Homo sapiens, UniProt P05112).
T2 sequence (P05112 25-153): T1 sequence (P05112 25-153)
As to the kind of experiment: Differential scanning fluorimetry (thermal shift), IL-4. Format: binding. Here is the method:
DSF was performed using BioRad CFX384.

As a reminder, the inhibition is how much of the control response was suppressed. The term pEC50 denotes the negative decadic logarithm of the EC50, by convention in mol/L. As usually defined, the Hill coefficient is the slope factor of the fitted curve.

SMILES strings stand for the structures. pEC50: −log10 of the molar value. Several values for one entry are separate records, joined by “and”; a condition that tells them apart may be missing. Equal entries are not always repeated. Where two headings read alike, the source gives them in different places.

Chain of IL-13 (P35225 25-146): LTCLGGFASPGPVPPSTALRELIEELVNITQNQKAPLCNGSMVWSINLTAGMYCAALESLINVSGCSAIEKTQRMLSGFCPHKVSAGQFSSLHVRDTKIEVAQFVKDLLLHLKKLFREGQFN

On to `N#Cc1c(-c2ccc(O)c(O)c2)cc(-c2ccccc2)[nH]c1=N` [Compound 15, 4-(3,4-dihydroxyphenyl)-2-imino-6-phenyl-1,2-dihydropyridine-3-carbonitrile], for which the inhibition at 0.5 µM in data set [1] (Homo sapiens, Ramos, read-out: percent inhibition of STAT-6 phosphorylation) is 61.9%. Moreover, in [1] (Ramos B lymphocytes, 50 nM), the “inhibition of phosphorylation of STAT-6” value is on record as “minimum inhibition”. The “Mouse hepatic microsome stability (% remaining after 1 hour)” value in [2] was determined as 30.3%. The same molecule yielded an inhibition at 10 µM in data set [3] (HEK-Blue, 10 μM, IL-4, HEK Blue IL-4/IL-13 reporter assay) of 95.5%. In addition, the pEC50 in [3] (HEK Blue IL-4/IL-13 reporter assay, read-out: EC50) was 6.07 and 6.26; in [3] (values in text, read-out: potency (EC50 of inhibition)), 6.26; in data set [6] (Homo sapiens, THP-1 monocytes, western blot, normalized to STAT-6, read-out: EC50 of inhibition of STAT-6 phosphorylation) it was 7.30; in data set [10], 5.35. The molecule also registered a Hill coefficient in data set [3] (fit of dose response in HEK Blue IL-4/IL-13 reporter assay) of 1.49±0.15. Moreover, the “Mouse plasma stability (% remaining after 3 hours)” value in data set [4] is recorded as 94.3%. This molecule also showed an Abs650 in data set [5] of 0.06345 ± 0.001036. In addition, the STAT-6 levels result in data set [6] (total STAT-6, THP-1 cells) is reported as “not impacted”. Also, the figures for the “Cytotoxicity in B16-F10 cells (24 hours)” value in [7] and in data set [7] (listed as Analog 15) were “no toxicity” and “n.s. < 25 μM”, respectively. The “STAT-6 phosphorylation by immunofluorescence” value is recorded as “reduced STAT-6 phosphorylation” in data set [8] (50 nM) and “complete inhibition of phosphorylation” in data set [8] (500 nM). Further, in [9], the “Human plasma stability (% remaining after 3 hours)” value was determined as 97.4%. The ΔTm at 2 µM was > 1 °C in data set [11] (IL-4 shift minus IL-2 shift, 2 μM, read-out: thermal shift for IL-4 stronger than for IL-2 by) and 1.75 °C in data set [11] (soluble IL-4, 2 μM compound, 0.1% DMSO, read-out: Tm shift).

(Values after patent publication US20250313530A1, “SMALL MOLECULE INHIBITORS OF INTERLEUKIN-4 AND USES THEREOF” (Trustees of Boston University, priority 2024, published 2025).)
